Molecular target: histamine H1 receptor (H1R) (Homo sapiens, UniProt P35367)
Experiment: [3H]-thymidine incorporation in CHO-H1R cells
Format: cell-based

histamine H1 receptor (H1R), sequence (P35367 whole entry): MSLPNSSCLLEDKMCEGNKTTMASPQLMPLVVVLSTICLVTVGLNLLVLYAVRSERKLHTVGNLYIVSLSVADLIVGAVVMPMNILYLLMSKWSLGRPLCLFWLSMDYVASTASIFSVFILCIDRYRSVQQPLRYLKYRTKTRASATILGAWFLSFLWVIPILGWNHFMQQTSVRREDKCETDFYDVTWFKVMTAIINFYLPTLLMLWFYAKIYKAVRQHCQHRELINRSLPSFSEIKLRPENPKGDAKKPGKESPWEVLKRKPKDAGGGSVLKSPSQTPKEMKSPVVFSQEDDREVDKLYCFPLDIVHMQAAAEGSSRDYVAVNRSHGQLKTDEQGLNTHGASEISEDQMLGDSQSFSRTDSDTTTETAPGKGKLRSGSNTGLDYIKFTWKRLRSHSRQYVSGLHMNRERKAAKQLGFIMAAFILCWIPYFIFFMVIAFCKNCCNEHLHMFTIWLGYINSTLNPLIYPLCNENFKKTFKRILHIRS

EC50: 23.1 ± 3.6 µM
Compound: NCCc1cnc(-c2cccc(C(F)(F)F)c2)[nH]1 [H1, 2,3-trifluormetilfenilhistamine]

Reference: publication PMC12985397 (Experimental cell research, 2009)
